Test results published in patent US4661297A, “Basic ethers of 7-oxo-7H-benzo(c) fluorene and a process for their production” (SPOFA, spojene podniky pro zdravotnickou vyrobu, priority 1980, dated 1987).
Numbered stars: 1 amine (or outer) side, 2 acyl side, 3 side chain; on linkers, the order of the positions; unused ones are H or OH. Bridge positions count the residues as written; N and C are the ends. Square brackets hold non-standard residues; d marks the D form. Peptide text beside a SMILES is read from it. I, II: the chains in the order shown. Actinocin(9to1) = Cc1c2oc3c(C)ccc(C(=O)[*:1])c3nc-2c(C(=O)[*:2])c(N)c1=O; NMeV = CN[C@H](C(=O)O)C(C)C; Sar = CNCC(=O)O

Tested on: DNA, RNA and protein biosynthesis
Experiment: Effect on DNA, RNA and protein biosynthesis (substrate incorporation)
Format: cell-based
Text: Thus, by way of exemplification, the IC^50 values (inhibitory concentration which lowered the initial rate of ^14 C incorporation to 50% of control) are shown in Table VI, below (Yoshida's Tumor, (U-^14 C) amino acid mixture)
The foregoing data clearly indicate that the compounds of the invention are potent inhibitors of DNA, RNA and protein biosynthesis. This is of significance because the suppression of tumor cells in a host is attained by inhibition of the biosynthesis of DNA, RNA and proteins.

In the case of Cc1c2oc3c(C)ccc(C(=O)N[C@@H]4C(=O)N[C@H](C(C)C)C(=O)N5CCC[C@H]5C(=O)N(C)CC(=O)N(C)[C@@H](C(C)C)C(=O)O[C@@H]4C)c3nc-2c(C(=O)N[C@@H]2C(=O)N[C@H](C(C)C)C(=O)N3CCC[C@H]3C(=O)N(C)CC(=O)N(C)[C@@H](C(C)C)C(=O)O[C@@H]2C)c(N)c1=O [Actinomycin D] (I: T[dV]P[Sar][NMeV] / II: T[dV]P[Sar][NMeV]; ester I:1-I:C, II:1-II:C; linker I:N-II:N via Actinocin(9to1)), the IC50 (substrate (6-3H)uridine) is reported as 1.7 µg/mL.

O=NN(CCCl)C(=O)NC1CCCCC1 [CCNU] gave an IC50 (substrate L-(U-14C)amino-acid mixture) of 45 µM.

Compound Nc1ccn([C@@H]2O[C@H](CO)[C@@H](O)[C@@H]2O)c(=O)n1 [Cytosine arabinoside] has an IC50 (substrate (thymine-U-14C)-thymidine) of 2 µM and an IC50 (substrate L-(U-14)amino-acid) of 430 µM.
